The target of assay [1] is T1, OSGPR114 (Homo sapiens, UniProt Q9H1C0).
T1 construct: expressed in transfected cells; host or cells: engineered yeast (GPA1 replaced by G-alpha chimeras, STE3 deleted; Fus1p-LacZ reporters)
Nature of the assay: Yeast Fus1p-LacZ β-galactosidase reporter assay, OSGPR114-transformed yeast. It is filed as cell-based. The following applies: for effect on fluorescence (β-galactosidase reporter): yeast transformed with OSGPR114. An excerpt:
(§1) The yeast cell-based reporter assays have previously been described in the literature (e.g. see Miret J. J., et. al. (2002) J. Biol. Chem. 277:6881-6887; Campbell R. M., et. al. (1999) Bioorg Med. Chem. Lett. 9:2413-2418; King K., et. al. (1990) Science. 250:121-123); WO 99/14344; WO 00/12704; and U.S. Pat. No. 6,100,042). Briefly, yeast cells have been engineered such that the endogenous yeast G-alpha (GPA1) has been deleted and replaced with G-protein chimeras constructed using multiple techniques. Additionally the endogenous yeast alpha-cell GPCR, STE3 has been deleted to allow for a […] expression of a mammalian GPCR of choice. In the yeast, elements of the pheromone signaling transduction pathway, which are conserved in eukaryotic cells (for example, the mitogen-activated protein kinase pathway), drive the expression of Fus1. By placing β-galactosidase (LacZ) under the control of the Fus1 promoter (Fus1p), a system has been developed whereby receptor activation leads to an enzymatic read-out. Different yeast strains (e.g. FIG. 6) denote the presence of different G-alpha chimeras (see “yeast reporter assays” in Results section below for definitions).
(§2) Yeast cells are transformed by an adaptation of the Lithium acetate method described by Agatep et.al. (Agatep, R., et. al. (1998) Transformation of Saccharomyces cerevisiae by the lithium acetate/single-stranded carrier DNA/polyethylene glycol (LiAc/ss-DNA/PEG) protocol. Technical Tips Online, Trends Journals, Elsevier). Briefly, yeast cells are grown overnight on yeast tryptone plates (YT). Carrier single-stranded DNA (10 μg), 2 μg of each of two Fus1p-LacZ reporter plasmids (one with URA3 selection marker and one with TRP1), 2 μg of OSGPR114 or OSGPR78 in yeast expression vector (2p origin of replication) and a lithium acetate/polyethylene glycol/TE buffer is pipetted into an Epindorf tube. The yeast expression plasmid containing the receptor/no receptor control has a LEU2 marker. Yeast cells are inoculated into this mixture and the reaction proceeds at 30° C. for 60 minutes. The yeast cells are then heat-shocked at 42° C. for 15 minutes. The cells are then washed and spread on selection plates. The selection plates are synthetic defined yeast media minus LEU, URA and TRP (SD-LUT). After incubating at 30° C. for 2-3 days, colonies that grow on the selection plates are then tested in the LacZ assay.
(§3) In order to perform fluorometric enzyme assays for β-galactosidase, yeast cells were grown overnight in liquid SD-LUT media to an unsaturated concentration (i.e. the cells are still dividing and have not yet reached stationary phase). They are diluted in fresh media to an optimal assay concentration and 90 μL of yeast cells were added to 96-well black polystyrene plates (Costar). Compounds, dissolved in ethanol and diluted in a 1% BSA solution to 10× concentration, were added to the plates and the yeast are placed at 30° C. for 4 h. After 4 h, the substrate for the β-galactosidase is added to each well: The substrate may yield a fluorescent or calorimetric read-out upon the activity of the β-galactosidase. In these experiments, Fluorescein di(β-D-galactopyranoside) was used (FDG), a substrate for the enzyme that releases fluorescein, allowing a fluorometric read-out. 20 μL of 500 μM FDG was used. After incubation of the cells with the substrate for 30-60 mins, 20 μL of 1 M sodium carbonate is added to terminate the reaction and enhance the fluorescent signal. The plates were then read in a fluorometer at 485/535 nm. As an alternate read-out system, the yeast are also engineered with a Fus1p-HIS gene which means that activation of the receptor can also be measured through the growth of the yeast in a […] media.

The target of assay [2] is T2, OSGPR78 (Homo sapiens, UniProt P43657, I33V).
T2 construct: expressed in transfected cells; host or cells: engineered yeast (GPA1 replaced by G-alpha chimeras, STE3 deleted; Fus1p-LacZ reporters)
T2 sequence (P43657 1-344 I33V): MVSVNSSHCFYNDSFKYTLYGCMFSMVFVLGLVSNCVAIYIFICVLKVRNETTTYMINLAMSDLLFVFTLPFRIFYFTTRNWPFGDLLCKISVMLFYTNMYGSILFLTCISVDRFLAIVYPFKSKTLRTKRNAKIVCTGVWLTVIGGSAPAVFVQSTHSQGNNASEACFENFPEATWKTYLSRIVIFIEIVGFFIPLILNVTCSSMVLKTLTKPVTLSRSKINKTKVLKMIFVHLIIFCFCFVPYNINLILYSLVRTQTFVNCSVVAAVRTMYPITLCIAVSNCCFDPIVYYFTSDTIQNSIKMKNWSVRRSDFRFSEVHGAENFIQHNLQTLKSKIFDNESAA
Description: Yeast Fus1p-LacZ β-galactosidase reporter assay, OSGPR78-transformed yeast. The settings on record: yeast transformed with OSGPR78. It is filed as cell-based.
From the text: as §1, §2, §3
Background: In a reporter assay the amount or activity of a reporter protein is the signal.

The target of assay [3] is T1, OSGPR114. Description: [35S]-GTPγS binding, CHO-OSGPR114 membranes. The settings on record: CHO-OSGPR114 versus CHO membranes. It is filed as biochemical. In general terms: GTPγS is a poorly hydrolysed GTP analogue; its binding reports G protein activation.
Description: For example, in one method employed herein, membranes from untransfected CHO cells as well as OSGPR114 stable clones were prepared using the method described by Griffin et al (1998). Membranes were homogenized in buffer containing 50 mM Tris, 3 mM MgCl2, 100 mM NaCl, 1 mM EDTA, 1 uM GDP, 0.1% fatty acid free BSA, 0.01% Saponin, pH 7.4. Assays were carried out in a reaction mixture containing 50 mL of membrane suspension (5 mg/well), 50 mL of [^35S]-GTPgS binding (final concentration 0.5 nM: 50 mL aliquot counted to determine precise concentration employed) and either 50 mL of assay buffer, 50 mL of unlabeled GTPgS (defining nonspecific binding:final concentration is 10 mM) or 50 mL of each concentration of LPA. Incubations were carried out in triplicate for 60 minutes at 37° C. Reactions were terminated by rapid filtration over GF/B filters presoaked in ice cold wash buffer for 90 minutes. The filters were then washed 6 times with 0.3 mL of ice cold wash buffer (50 mM Tris, 5 mM MgCl2, pH 7.4). The filters were dried, covered with Microscint-20, dark adapted for 5 minutes, and counted on a 2 minute [^35S] protocol on a Packard TopCount LSC.
Assay [4] deals with endogenous CHO receptor. Description: [35S]-GTPγS binding, parental CHO membranes. It is filed as biochemical, hamster. The following applies: 1 nM to 300 nM applied. As to the method:
For example, in one method employed herein, membranes from untransfected CHO cells as well as OSGPR114 stable clones were prepared using the method described by Griffin et al (1998). Membranes were homogenized in buffer containing 50 mM Tris, 3 mM MgCl2, 100 mM NaCl, 1 mM EDTA, 1 uM GDP, 0.1% fatty acid free BSA, 0.01% Saponin, pH 7.4. Assays were carried out in a reaction mixture containing […], 50 mL of [^35S]-GTPgS binding (final concentration 0.5 nM: 50 mL aliquot counted to determine precise concentration employed) and either 50 mL of assay buffer, 50 mL of unlabeled GTPgS (defining nonspecific binding:final concentration is […]) or 50 mL of each concentration of LPA. Incubations were carried out in triplicate for 60 minutes at 37° C. Reactions were terminated by rapid filtration over GF/B filters presoaked in ice cold wash buffer for 90 minutes. The filters were then washed 6 times with 0.3 mL of ice cold wash buffer (50 mM Tris, 5 mM MgCl2, pH 7.4). The filters were dried, covered with Microscint-20, dark adapted for 5 minutes, and counted on a 2 minute [^35S] protocol on a Packard TopCount LSC.

The test system of assay [5] is vector transformed yeast cells. Description: Yeast Fus1p-LacZ reporter assay, vector control (no receptor). It is filed as cell-based. The settings on record: vector controls, same yeast strains.
From the text: as §1, §2
as §3, with “Compounds, dissolved in ethanol and diluted in a 1% BSA solution to 10× concentration, were added to the plates and the yeast are placed at 30° C. for 4 h.” left out, “20 μL of 500 μM FDG was used. After incubation of the cells with the substrate for 30-60 mins, 20 μL of 1 M sodium carbonate is added to terminate the reaction and enhance the fluorescent signal.” left out

In assay [6] the target is T1, OSGPR114. Description: FLIPR intracellular calcium assay, CHO-OSGPR114 cells. It is filed as cell-based. The settings on record: co-addition with LPA. The method, then: For example, in one method employed herein, CHO and CHO-114 cells were seeded at a concentration of 50K cells/well in […] growth media in clear, flat-bottom 96-well black assay plates and incubated overnight at 37 C. The growth media is aspirated from the cells and a dye solution ([…]) added to each well. The dye solution consists of 2 mM probenecid, 2 mM HBSS, […] in a growth media minus antibiotics solution. The cells are loaded with the dye for 1 h at 37 C before aspiration and rinsing with wash buffer (20 mM HBSS+2 mM Probenecid). Compound plates are then prepared with 4× compound/control. 150 ul of wash buffer is added to each well. Once the FLIPR is fully calibrated, compound is added to the plate and the release of calcium measured using 0.4 exposure length and a laser set at 0.3W.

T1 sequence (Q9H1C0 whole entry): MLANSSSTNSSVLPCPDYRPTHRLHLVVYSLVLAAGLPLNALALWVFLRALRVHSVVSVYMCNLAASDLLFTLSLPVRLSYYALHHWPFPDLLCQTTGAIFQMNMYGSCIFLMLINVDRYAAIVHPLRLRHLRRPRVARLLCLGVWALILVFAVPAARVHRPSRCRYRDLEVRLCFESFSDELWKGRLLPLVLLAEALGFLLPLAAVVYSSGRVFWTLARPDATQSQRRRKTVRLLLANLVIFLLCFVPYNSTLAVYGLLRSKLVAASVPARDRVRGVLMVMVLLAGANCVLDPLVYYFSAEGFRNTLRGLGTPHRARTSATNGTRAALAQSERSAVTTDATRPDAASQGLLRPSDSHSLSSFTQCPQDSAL

As to `Nc1ncnc2c1ncn2[C@@H]1O[C@H](COP(=O)(O)OP(=O)(O)O)[C@@H](O)[C@H]1O` [ADP], the “effect on fluorescence (β-galactosidase reporter)” value (shortened to “effect on fluorescence”) in assay [1] and in assay [2] was “no effect” in each case.

On to `Nc1ncnc2c1ncn2[C@@H]1O[C@H](COP(=O)(O)OP(=O)(O)OP(=O)(O)O)[C@@H](O)[C@H]1O` [ATP], for which the “effect on fluorescence” value in assay [1] and in assay [2] was “no effect” in each case.

For `CCCCCCCCC=CCCCCCCCC(=O)OCC(O)COP(=O)(O)O` (centres unmarked) [Oleoyl LPA, oleoyl lysophosphatidic acid], the “response in yeast G-alpha chimera strains” value in assay [1] (chimeras of Galpha q (20156) and Galphas (20202)) is on record as “could produce a response”. Further, the “effect on fluorescence” value in assay [1] and in assay [2] was “increase in fluorescence” throughout. Also, the “Emax, GTPγS binding” value in assay [3] is recorded as “comparable Emax values”. Besides, the EC50 in assay [4] came out at 768 nM. Also, the “response in vector transformed yeast cells” value in assay [5] was “not in vector transformed cells”; in assay [5] (listed as oleoyl LPA), “did not respond”.

For `CCCCCCCCCCCCCC(=O)OC[C@@H](O)COP(=O)(O)O` [myristoyl LPA, myristoyl lysophosphatidic acid], the “effect on fluorescence” value in assay [1] and in assay [2] was “increase in fluorescence” each time. Moreover, the “response in vector transformed yeast cells” value in assay [5] was “not in vector transformed cells”.

As to `CCCCCCCCCCCCCCCC(=O)OC[C@@H](O)COP(=O)(O)O` [palmitoyl LPA, palmitoyl lysophosphatidic acid], the “effect on fluorescence” value in assay [1] and in assay [2] was “increase in fluorescence” throughout. The “response in vector transformed yeast cells” value in assay [5] is “not in vector transformed cells”.

With `CCCCCCCCCCCCCCCCCC(=O)OC[C@@H](O)COP(=O)(O)O` [stearoyl LPA, stearoyl lysophosphatidic acid], the “effect on fluorescence” value in assay [1] and in assay [2] was “increase in fluorescence” each time. Further, the “response in vector transformed yeast cells” value in assay [5] was “not in vector transformed cells”.

As to pertussis toxin, in assay [6], the “effect of co-addition on LPA calcium response” value is “completely abolished this effect”.

platelet-activating factor [PAF]: the “effect on fluorescence” value in assay [1] and in assay [2] was “no effect” in each case.

The term EC50 denotes the concentration needed to bring the measured effect to its halfway point.
